Measured values as given in patent US10681909B2, “Herbicidal triazoles” (FMC Corporation, priority 2014, dated 2020).

What was measured:
[1] = tested on: ryegrass, Italian; assay: Test E preemergence; format: in vivo, Lolium multiflorum; conditions: scale 0 to 100
Excerpt: (§1) Seeds of plant species selected from corn (Zea mays), soybean (Glycine max), lambsquarters (Chenopodium album), poinsettia, wild (wild poinsettia, Euphorbia heterophylla), pigweed, palmer (palmer pigweed, Amaranthus palmeri), waterhemp (common waterhemp, Amaranthus rudis), surinam grass (Brachiaria decumbens), crabgrass, large (large crabgrass, Digitaria sanguinalis), crabgrass, Brazilian (Brazilian crabgrass, Digitaria horizontalis), panicum, fall (fall panicum, Panicum dichotomiflorum), foxtail, giant (giant foxtail, Setaria faberii), foxtail, green (green foxtail, Setaria viridis), goosegrass (Eleusine indica), johnsongrass (Sorghum halepense), ragweed (common ragweed, Ambrosia elatior), barnyardgrass (Echinochloa crus-galli), sandbur (southern sandbur, Cenchrus echinatus), arrowleaf sida (Sida rhombifolia), ryegrass, Italian (Italian ryegrass, Lolium multiflorum), dayflower, VA (Virginia dayflower, Commelina virginica), field bindweed (Convolvulus arvensis), cocklebur (common cocklebur, Xanthium strumarium), morningglory (Ipomoea coccinea), nightshade (eastern black nightshade, Solanum ptycanthum), kochia (Kochia scoparia), nutsedge, yellow (yellow nutsedge, Cyperus esculentus), smartweed (ladysthumb smartweed, Polygonum persicaria), velvetleaf (Abutilon theophrasti), horseweed (Conyza canadensis), and beggarticks (hairy beggarticks, Bidens pilosa), were planted into a silt loam soil and treated preemergence with test chemicals formulated in a non-phytotoxic solvent mixture which included a surfactant.
(§2) At the same time, plants from these crop and weed species and also waterhemp_RES1, (ALS & Triazine resistant common waterhemp, Amaranthus rudis), and waterhemp_RES2, (ALS & HPPD resistant common waterhemp, Amaranthus rudis) were planted in pots containing Sunshine Redi-Earth® planting medium comprising spaghnum peat moss, vermiculite, starter nutrients and dolomitic limestone were treated with postemergence applications of test chemicals formulated in the same manner. Plants ranged in height from 2 to 18 cm for postemergence treatments (1- to 4-leaf stage). Treated plants and controls were maintained in a greenhouse for 14 to 21 d, after which time all species were compared to controls and visually evaluated. Plant response ratings, summarized in Table E, are based on a scale of 0 to 100 where 0 is no effect and 100 is complete control. A dash (-) response means no test result.

[2] = tested on: crabgrass, large; assay: Test E preemergence; format: in vivo, Digitaria sanguinalis; conditions: scale 0 to 100
Excerpt: as §1, §2

[3] = tested on: johnsongrass; assay: Test E preemergence; format: in vivo, Sorghum halepense; conditions: scale 0 to 100
Excerpt: as §1, §2

[4] = tested on: field bindweed; assay: Test E preemergence; format: in vivo, Convolvulus arvensis; conditions: scale 0 to 100
Excerpt: as §1, §2

[5] = tested on: lambsquarters; assay: Test E preemergence; format: in vivo, Chenopodium album; conditions: scale 0 to 100
Excerpt: as §1, §2

[6] = tested on: pigweed, palmer; assay: Test E postemergence; format: in vivo, Amaranthus palmeri; conditions: scale 0 to 100
Excerpt: as §1, §2

[7] = tested on: arrowleaf sida; assay: Test E preemergence; format: in vivo, Sida rhombifolia; conditions: scale 0 to 100
Excerpt: as §1, §2

[8] = tested on: sandbur; assay: Test E preemergence; format: in vivo, Cenchrus echinatus; conditions: scale 0 to 100
Excerpt: as §1, §2

[9] = tested on: crabgrass, Brazilian; assay: Test E postemergence; format: in vivo, Digitaria horizontalis; conditions: Brazil, scale 0 to 100
Excerpt: as §1, §2

[10] = tested on: ragweed; assay: Test E preemergence; format: in vivo, Ambrosia elatior; conditions: scale 0 to 100
Excerpt: as §1, §2

[11] = tested on: morningglory; assay: Test E preemergence; format: in vivo, Ipomoea coccinea; conditions: scale 0 to 100
Excerpt: as §1, §2

[12] = tested on: nightshade; assay: Test E preemergence; format: in vivo, Solanum ptycanthum; conditions: scale 0 to 100
Excerpt: as §1, §2

[13] = tested on: panicum, fall; assay: Test E preemergence; format: in vivo, Panicum dichotomiflorum; conditions: scale 0 to 100
Excerpt: as §1, §2

[14] = tested on: soybean; assay: Test E preemergence; format: in vivo, Glycine max; conditions: scale 0 to 100
Excerpt: as §1, §2

[15] = tested on: kochia; assay: Test E preemergence; format: in vivo, Kochia scoparia; conditions: scale 0 to 100
Excerpt: as §1, §2

[16] = tested on: field bindweed; assay: Test E postemergence; format: in vivo, Convolvulus arvensis; conditions: scale 0 to 100
Excerpt: as §1, §2

[17] = tested on: ragweed; assay: Test E postemergence; format: in vivo, Ambrosia elatior; conditions: scale 0 to 100
Excerpt: as §1, §2

[18] = tested on: dayflower, VA; assay: Test E postemergence; format: in vivo, Commelina virginica; conditions: scale 0 to 100
Excerpt: as §1, §2

[19] = tested on: waterhemp; assay: Test E preemergence; format: in vivo, Amaranthus rudis; conditions: scale 0 to 100
Excerpt: as §1, §2

[20] = tested on: corn; assay: Test E preemergence; format: in vivo, Zea mays; conditions: scale 0 to 100
Excerpt: as §1, §2

Question: With `Fc1ccc(-c2nc(OCC(F)(F)F)n(Cc3ccnc(C(F)(F)F)c3)n2)cc1` [Compound 30] as the molecule, how does the Plant response rating ([1]; 31 g ai/ha) read?
Answer: The Plant response rating was 30.

Question: And the Plant response rating ([1]; 62 g ai/ha)?
Answer: Its Plant response rating is 40.

Question: And the Plant response rating ([1]; 125 g ai/ha)?
Answer: The Plant response rating was 75.

Question: What about the Plant response rating ([1]; 250 g ai/ha) of the same molecule?
Answer: Its Plant response rating is 100.

Question: What about the Plant response rating ([2]; 31 g ai/ha) of the same molecule?
Answer: Its Plant response rating is 98.

Question: What about the Plant response rating ([2]; 62 g ai/ha) of the same molecule?
Answer: Its Plant response rating is 98.

Question: What about the Plant response rating ([2]; 125 g ai/ha) of the same molecule?
Answer: The Plant response rating was 100.

Question: What about the Plant response rating ([2]; 250 g ai/ha) of the same molecule?
Answer: The Plant response rating was 100.

Question: And the Plant response rating ([3]; 31 g ai/ha)?
Answer: The Plant response rating was 65.

Question: What about the Plant response rating ([3]; 62 g ai/ha) of the same molecule?
Answer: The Plant response rating was 65.

Question: What about the Plant response rating ([3]; 125 g ai/ha) of the same molecule?
Answer: The Plant response rating was 98.

Question: And the Plant response rating ([3]; 250 g ai/ha)?
Answer: Its Plant response rating is 100.

Question: And the Plant response rating ([4]; 31 g ai/ha)?
Answer: The Plant response rating was 10.

Question: What about the Plant response rating ([4]; 62 g ai/ha) of the same molecule?
Answer: The Plant response rating was 25.

Question: What about the Plant response rating ([4]; 125 g ai/ha) of the same molecule?
Answer: Its Plant response rating is 65.

Question: And the Plant response rating ([4]; 250 g ai/ha)?
Answer: Its Plant response rating is 75.

Question: What about the Plant response rating ([5]; 31 g ai/ha) of the same molecule?
Answer: Its Plant response rating is 90.

Question: What about the Plant response rating ([5]; 62 g ai/ha) of the same molecule?
Answer: Its Plant response rating is 98.

Question: What about the Plant response rating ([5]; 125 g ai/ha) of the same molecule?
Answer: The Plant response rating was 100.

Question: And the Plant response rating ([5]; 250 g ai/ha)?
Answer: Its Plant response rating is 100.

Question: And the Plant response rating ([6]; 31 g ai/ha)?
Answer: The Plant response rating was 95.

Question: And the Plant response rating ([6]; 62 g ai/ha)?
Answer: Its Plant response rating is 100.

Question: What about the Plant response rating ([6]; 125 g ai/ha) of the same molecule?
Answer: Its Plant response rating is 100.

Question: And the Plant response rating ([6]; 250 g ai/ha)?
Answer: The Plant response rating was 100.

Question: And the Plant response rating ([7]; 31 g ai/ha)?
Answer: Its Plant response rating is 40.

Question: What about the Plant response rating ([7]; 62 g ai/ha) of the same molecule?
Answer: Its Plant response rating is 65.

Question: What about the Plant response rating ([7]; 125 g ai/ha) of the same molecule?
Answer: Its Plant response rating is 85.

Question: And the Plant response rating ([7]; 250 g ai/ha)?
Answer: The Plant response rating was 95.

Question: What about the Plant response rating ([8]; 31 g ai/ha) of the same molecule?
Answer: Its Plant response rating is 35.

Question: What about the Plant response rating ([8]; 62 g ai/ha) of the same molecule?
Answer: Its Plant response rating is 65.

Question: And the Plant response rating ([8]; 125 g ai/ha)?
Answer: The Plant response rating was 90.

Question: What about the Plant response rating ([8]; 250 g ai/ha) of the same molecule?
Answer: The Plant response rating was 95.

Question: And the Plant response rating ([9]; 31 g ai/ha)?
Answer: The Plant response rating was 35.

Question: What about the Plant response rating ([9]; 62 g ai/ha) of the same molecule?
Answer: The Plant response rating was 60.

Question: And the Plant response rating ([9]; 125 g ai/ha)?
Answer: Its Plant response rating is 70.

Question: And the Plant response rating ([9]; 250 g ai/ha)?
Answer: Its Plant response rating is 85.

Question: What about the Plant response rating ([10]; 31 g ai/ha) of the same molecule?
Answer: The Plant response rating was 65.

Question: What about the Plant response rating ([10]; 62 g ai/ha) of the same molecule?
Answer: Its Plant response rating is 50.

Question: And the Plant response rating ([10]; 125 g ai/ha)?
Answer: Its Plant response rating is 70.

Question: And the Plant response rating ([10]; 250 g ai/ha)?
Answer: Its Plant response rating is 98.

Question: What about the Plant response rating ([11]; 31 g ai/ha) of the same molecule?
Answer: Its Plant response rating is 25.

Question: And the Plant response rating ([11]; 62 g ai/ha)?
Answer: The Plant response rating was 15.

Question: What about the Plant response rating ([11]; 125 g ai/ha) of the same molecule?
Answer: Its Plant response rating is 15.

Question: What about the Plant response rating ([11]; 250 g ai/ha) of the same molecule?
Answer: Its Plant response rating is 65.

Question: And the Plant response rating ([12]; 31 g ai/ha)?
Answer: Its Plant response rating is 20.

Question: What about the Plant response rating ([12]; 62 g ai/ha) of the same molecule?
Answer: The Plant response rating was 80.

Question: What about the Plant response rating ([12]; 125 g ai/ha) of the same molecule?
Answer: Its Plant response rating is 90.

Question: And the Plant response rating ([12]; 250 g ai/ha)?
Answer: Its Plant response rating is 98.

Question: And the Plant response rating ([13]; 31 g ai/ha)?
Answer: The Plant response rating was 100.

Question: What about the Plant response rating ([13]; 62 g ai/ha) of the same molecule?
Answer: The Plant response rating was 98.

Question: What about the Plant response rating ([13]; 125 g ai/ha) of the same molecule?
Answer: Its Plant response rating is 100.

Question: What about the Plant response rating ([13]; 250 g ai/ha) of the same molecule?
Answer: The Plant response rating was 100.

Question: And the Plant response rating ([14]; 31 g ai/ha)?
Answer: Its Plant response rating is 0.

Question: What about the Plant response rating ([14]; 62 g ai/ha) of the same molecule?
Answer: Its Plant response rating is 0.

Question: And the Plant response rating ([14]; 125 g ai/ha)?
Answer: The Plant response rating was 0.

Question: And the Plant response rating ([14]; 250 g ai/ha)?
Answer: The Plant response rating was 30.

Question: And the Plant response rating ([15]; 31 g ai/ha)?
Answer: Its Plant response rating is 90.

Question: What about the Plant response rating ([15]; 62 g ai/ha) of the same molecule?
Answer: Its Plant response rating is 100.

Question: And the Plant response rating ([15]; 125 g ai/ha)?
Answer: Its Plant response rating is 100.

Question: And the Plant response rating ([15]; 250 g ai/ha)?
Answer: The Plant response rating was 100.

Question: What about the Plant response rating ([16]; 31 g ai/ha) of the same molecule?
Answer: Its Plant response rating is 70.

Question: What about the Plant response rating ([16]; 62 g ai/ha) of the same molecule?
Answer: The Plant response rating was 70.

Question: And the Plant response rating ([16]; 125 g ai/ha)?
Answer: Its Plant response rating is 75.

Question: What about the Plant response rating ([16]; 250 g ai/ha) of the same molecule?
Answer: The Plant response rating was 70.

Question: What about the Plant response rating ([17]; 31 g ai/ha) of the same molecule?
Answer: Its Plant response rating is 65.

Question: And the Plant response rating ([17]; 62 g ai/ha)?
Answer: The Plant response rating was 70.

Question: What about the Plant response rating ([17]; 125 g ai/ha) of the same molecule?
Answer: Its Plant response rating is 75.

Question: And the Plant response rating ([17]; 250 g ai/ha)?
Answer: Its Plant response rating is 80.

Question: And the Plant response rating ([18]; 31 g ai/ha)?
Answer: The Plant response rating was 60.

Question: And the Plant response rating ([18]; 62 g ai/ha)?
Answer: Its Plant response rating is 70.

Question: And the Plant response rating ([18]; 125 g ai/ha)?
Answer: The Plant response rating was 80.

Question: And the Plant response rating ([18]; 250 g ai/ha)?
Answer: Its Plant response rating is 90.

Question: What about the Plant response rating ([19]; 31 g ai/ha) of the same molecule?
Answer: The Plant response rating was 100.

Question: What about the Plant response rating ([19]; 62 g ai/ha) of the same molecule?
Answer: Its Plant response rating is 100.

Question: What about the Plant response rating ([19]; 125 g ai/ha) of the same molecule?
Answer: The Plant response rating was 100.

Question: What about the Plant response rating ([19]; 250 g ai/ha) of the same molecule?
Answer: The Plant response rating was 100.

Question: And the Plant response rating ([20]; 31 g ai/ha)?
Answer: The Plant response rating was 0.

Question: And the Plant response rating ([20]; 62 g ai/ha)?
Answer: The Plant response rating was 0.

Question: What about the Plant response rating ([20]; 125 g ai/ha) of the same molecule?
Answer: Its Plant response rating is 0.

Question: And the Plant response rating ([20]; 250 g ai/ha)?
Answer: The Plant response rating was 50.
